The text below walks through data of US9212182B2, “Bicyclic sulfonamide compounds as sodium channel inhibitors” (AMGEN INC., priority 2013, dated 2015).

Bounds are passed on as bounds.

The first test deals with Nav 1.7 (Homo sapiens (Human), UniProt Q15858). Kind of test: in-vitro Nav 1.7 PX (IC50). Format: cell-based.
Sequence of Nav 1.7 (Q15858 whole entry): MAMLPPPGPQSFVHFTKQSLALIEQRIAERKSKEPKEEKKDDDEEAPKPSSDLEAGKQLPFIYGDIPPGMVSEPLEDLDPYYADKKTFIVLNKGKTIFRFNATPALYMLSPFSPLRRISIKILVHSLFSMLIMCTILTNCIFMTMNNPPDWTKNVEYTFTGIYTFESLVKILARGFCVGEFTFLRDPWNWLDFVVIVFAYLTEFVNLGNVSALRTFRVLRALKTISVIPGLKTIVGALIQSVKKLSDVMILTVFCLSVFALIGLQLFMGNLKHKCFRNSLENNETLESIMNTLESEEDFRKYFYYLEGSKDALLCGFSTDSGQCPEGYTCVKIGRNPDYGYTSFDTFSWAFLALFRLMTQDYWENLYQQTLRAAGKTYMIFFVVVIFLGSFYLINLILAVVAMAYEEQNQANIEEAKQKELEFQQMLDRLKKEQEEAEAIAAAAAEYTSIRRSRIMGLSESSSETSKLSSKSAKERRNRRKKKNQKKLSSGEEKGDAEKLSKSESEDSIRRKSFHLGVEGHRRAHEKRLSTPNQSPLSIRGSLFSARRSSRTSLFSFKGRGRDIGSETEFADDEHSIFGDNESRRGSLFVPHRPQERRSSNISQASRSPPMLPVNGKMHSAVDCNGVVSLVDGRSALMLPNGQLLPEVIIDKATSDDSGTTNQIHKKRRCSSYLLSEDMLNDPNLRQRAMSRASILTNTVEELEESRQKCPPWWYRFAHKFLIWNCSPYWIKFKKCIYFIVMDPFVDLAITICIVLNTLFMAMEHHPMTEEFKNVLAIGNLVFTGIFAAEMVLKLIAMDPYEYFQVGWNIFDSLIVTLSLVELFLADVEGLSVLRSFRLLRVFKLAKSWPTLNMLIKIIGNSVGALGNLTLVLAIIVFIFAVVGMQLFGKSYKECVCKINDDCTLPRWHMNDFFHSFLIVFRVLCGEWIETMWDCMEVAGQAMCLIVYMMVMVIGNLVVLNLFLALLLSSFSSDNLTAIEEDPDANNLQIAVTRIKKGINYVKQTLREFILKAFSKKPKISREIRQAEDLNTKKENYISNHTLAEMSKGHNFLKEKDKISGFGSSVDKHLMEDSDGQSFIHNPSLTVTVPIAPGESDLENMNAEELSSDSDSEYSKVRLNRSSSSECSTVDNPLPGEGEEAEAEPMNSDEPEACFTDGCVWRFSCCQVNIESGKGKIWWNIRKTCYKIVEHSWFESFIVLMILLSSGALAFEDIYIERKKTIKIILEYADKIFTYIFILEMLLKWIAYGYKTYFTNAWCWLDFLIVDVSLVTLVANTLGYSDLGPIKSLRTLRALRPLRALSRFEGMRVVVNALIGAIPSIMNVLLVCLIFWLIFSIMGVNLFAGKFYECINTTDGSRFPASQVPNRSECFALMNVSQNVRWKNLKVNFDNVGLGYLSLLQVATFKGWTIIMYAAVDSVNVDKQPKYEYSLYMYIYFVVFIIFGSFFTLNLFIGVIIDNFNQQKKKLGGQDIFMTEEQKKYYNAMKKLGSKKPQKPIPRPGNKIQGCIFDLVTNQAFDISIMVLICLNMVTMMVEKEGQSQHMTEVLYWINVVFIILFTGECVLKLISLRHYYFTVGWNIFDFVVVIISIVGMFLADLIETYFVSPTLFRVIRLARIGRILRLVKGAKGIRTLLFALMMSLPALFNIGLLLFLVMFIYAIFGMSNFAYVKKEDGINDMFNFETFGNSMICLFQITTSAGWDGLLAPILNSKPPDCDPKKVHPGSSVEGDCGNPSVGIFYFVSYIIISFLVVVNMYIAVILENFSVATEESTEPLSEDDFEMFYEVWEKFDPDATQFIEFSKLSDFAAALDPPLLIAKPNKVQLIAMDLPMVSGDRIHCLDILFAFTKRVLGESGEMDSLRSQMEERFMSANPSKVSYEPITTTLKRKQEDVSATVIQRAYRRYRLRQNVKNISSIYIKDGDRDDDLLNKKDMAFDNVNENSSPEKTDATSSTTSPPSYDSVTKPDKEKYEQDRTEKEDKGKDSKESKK
Conditions: not given
The term IC50 denotes the point on the concentration scale where inhibition reaches its midpoint. The low end stands for greater potency, the high end for weaker potency. Take `COc1cc(-c2cccc(F)c2)c(Cl)cc1-n1c(=O)ccc2cc(S(=O)(=O)Nc3cccnn3)ccc21` (atropisomer, axis not shown; (M)) [Example 468, (M)-1-(2-chloro-3′-fluoro-5-methoxy-[1,1′-biphenyl]-4-yl)-2-oxo-N-(pyridazin-3-yl)-1,2-dihydroquinoline-6-sulfonamide]: half-maximal inhibition (IC50) was put at 7 µM. Still for that read-out and setting: then `COc1cc(-c2ccc(Cl)c(C)c2)c(Cl)cc1-n1c(=O)ccc2cc(S(=O)(=O)Nc3ccon3)ccc21` (atropisomer, axis not shown; (M)) [Example 472, (M)-1-(2,4′-dichloro-5-methoxy-3′-methyl-[1,1′-biphenyl]-4-yl)-N-(isoxazol-3-yl)-2-oxo-1,2-dihydroquinoline-6-sulfonamide], with 0.786 µM; and `COc1cc(-c2cc(F)cc(Cl)c2)c(F)cc1-n1c(=O)ccc2cc(S(=O)(=O)Nc3ccon3)ccc21` (atropisomer, axis not shown; (M)) [Example 478, (M)-1-(3′-chloro-2,5′-difluoro-5-methoxy-4-biphenylyl)-N-3-isoxazolyl-2-oxo-1,2-dihydro-6-quinolinesulfonamide], with 0.816 µM. Still for that read-out and setting: with `COc1ccc(-c2cccc(F)c2)cc1-n1c(=O)ccc2cc(S(=O)(=O)Nc3ccon3)ccc21` (atropisomer, axis not shown; (M)) [Example 484, (M)-1-(3′-fluoro-4-methoxy-3-biphenylyl)-N-3-isoxazolyl-2-oxo-1,2-dihydro-6-quinolinesulfonamide] the figure was 32.3 µM; with `COc1cc(-c2cccc(C(F)(F)F)c2)c(Cl)cc1-n1c(=O)ccc2cc(S(=O)(=O)Nc3ccon3)ccc21` (atropisomer, axis not shown; (M)) [Example 534, (M)-1-(2-chloro-5-methoxy-3′-(trifluoromethyl)-[1,1′-biphenyl]-4-yl)-N-(isoxazol-3-yl)-2-oxo-1,2-dihydroquinoline-6-sulfonamide], 1.35 µM. Same read-out and setting: then `COc1cc(-c2ccc(F)c(Cl)c2)ccc1-n1c(=O)ccc2cc(S(=O)(=O)Nc3ccon3)ccc21` (atropisomer, axis not shown; (M)) [Example 577, (M)-1-(3′-chloro-4′-fluoro-3-methoxy-4-biphenylyl)-N-3-isoxazolyl-2-oxo-1,2-dihydro-6-quinolinesulfonamide], with 7.13 µM; and `COc1cc(-c2ccc(Cl)c(F)c2)ccc1-n1c(=O)ccc2cc(S(=O)(=O)Nc3ccon3)ccc21` (atropisomer, axis not shown; (M)) [Example 579, (M)-1-(4′-chloro-3′-fluoro-3-methoxy-4-biphenylyl)-N-3-isoxazolyl-2-oxo-1,2-dihydro-6-quinolinesulfonamide], with 4.31 µM. `COc1cc(-c2cccc(C)c2)ccc1-n1c(=O)ccc2cc(S(=O)(=O)Nc3ccon3)ccc21` (atropisomer, axis not shown; (M)) [Example 583, (M)-N-3-isoxazolyl-1-(3-methoxy-3′-methyl-4-biphenylyl)-2-oxo-1,2-dihydro-6-quinolinesulfonamide] displayed an IC50 of more than 10 µM. `COc1cc(-c2cc(C)cc(Cl)c2)ccc1-n1c(=O)ccc2cc(S(=O)(=O)Nc3ccon3)ccc21` (atropisomer, axis not shown; (M)) [Example 586, (M)-1-(3′-chloro-3-methoxy-5′-methyl-4-biphenylyl)-N-3-isoxazolyl-2-oxo-1,2-dihydro-6-quinolinesulfonamide] had an IC50 of more than 1 µM.

`COc1cc(-c2ccc(C)c(Cl)c2)ccc1-n1c(=O)ccc2cc(S(=O)(=O)Nc3ccon3)ccc21` (atropisomer, axis not shown; (M)) [Example 588, (M)-1-(3′-chloro-3-methoxy-4′-methyl-4-biphenylyl)-N-3-isoxazolyl-2-oxo-1,2-dihydro-6-quinolinesulfonamide] yielded an IC50 of 1.02 µM.

Still in this test, the particulars now being: in-vitro Nav 1.7 PX data.
As for `COc1cc(Cl)c(-c2cccc(F)c2)cc1-n1c(=O)ccc2cc(S(=O)(=O)Nc3ccon3)ccc21` (atropisomer, axis not shown; (M)) [Example 609, (M)-1-(6-chloro-3′-fluoro-4-methoxy-3-biphenylyl)-N-3-isoxazolyl-2-oxo-1,2-dihydro-6-quinolinesulfonamide], the IC50 was determined as 10.1 µM.

On to `COc1ccc(-c2cc(F)cc(Cl)c2)cc1-n1c(=O)ccc2cc(S(=O)(=O)Nc3ccncn3)ccc21` (atropisomer, axis not shown; (M)) [Example 612, (M)-1-(3′-chloro-5′-fluoro-4-methoxy-3-biphenylyl)-2-oxo-N-4-pyrimidinyl-1,2-dihydro-6-quinolinesulfonamide], for which the IC50 turned out to be 0.355 µM.

Still in this test, the particulars now being: in-vitro PatchXpress (PX).
`COc1cc(-c2cc(F)cc(Cl)c2)ccc1-n1c(=O)ccc2cc(S(=O)(=O)Nc3cccnn3)ccc21` (atropisomer, axis not shown; (M)) [Example 481, (M)-1-(3′-chloro-5′-fluoro-3-methoxy-4-biphenylyl)-2-oxo-N-3-pyridazinyl-1,2-dihydro-6-quinolinesulfonamide]: the midpoint of inhibition, the IC50, lay at 3.07 µM. Same read-out and setting: with `COc1cc(-c2cccc(C#N)c2)c(F)cc1-n1c(=O)ccc2cc(S(=O)(=O)Nc3ccon3)ccc21` (atropisomer, axis not shown; (M)) [Example 499, (M)-1-(3′-cyano-2-fluoro-5-methoxy-4-biphenylyl)-N-3-isoxazolyl-2-oxo-1,2-dihydro-6-quinolinesulfonamide] the figure was 24.9 µM; with `COc1cc(Cl)cc(-c2cc(OC)c(-n3c(=O)ccc4cc(S(=O)(=O)Nc5ccon5)ccc43)cc2F)c1` (atropisomer, axis not shown; (M)) [Example 502, (M)-1-(3′-chloro-2-fluoro-5,5′-dimethoxy-4-biphenylyl)-N-3-isoxazolyl-2-oxo-1,2-dihydro-6-quinolinesulfonamide], 1.23 µM; with `COc1cc(-c2ccc(Cl)c(F)c2)c(F)cc1-n1c(=O)ccc2cc(S(=O)(=O)Nc3ccon3)ccc21` (atropisomer, axis not shown; (M)) [Example 504, (M)-1-(4′-chloro-2,3′-difluoro-5-methoxy-4-biphenylyl)-N-3-isoxazolyl-2-oxo-1,2-dihydro-6-quinolinesulfonamide], 0.008 µM. Same read-out and setting: then `COc1cc(-c2cc(C)cc(Cl)c2)c(F)cc1-n1c(=O)ccc2cc(S(=O)(=O)Nc3ccon3)ccc21` (atropisomer, axis not shown; (M)) [Example 507, (M)-1-(3′-chloro-2-fluoro-5-methoxy-5′-methyl-4-biphenylyl)-N-3-isoxazolyl-2-oxo-1,2-dihydro-6-quinolinesulfonamide], with 1.01 µM; and `COc1cc(-c2ccc(Cl)c(C#N)c2)c(F)cc1-n1c(=O)ccc2cc(S(=O)(=O)Nc3ccon3)ccc21` (atropisomer, axis not shown; (M)) [Example 509, (M)-1-(4′-chloro-3′-cyano-2-fluoro-5-methoxy-4-biphenylyl)-N-3-isoxazolyl-2-oxo-1,2-dihydro-6-quinolinesulfonamide], with 1.68 µM. Same read-out and setting: then `COc1cc(-c2ccc(C)c(F)c2)c(F)cc1-n1c(=O)ccc2cc(S(=O)(=O)Nc3ccon3)ccc21` (atropisomer, axis not shown; (M)) [Example 511, (M)-1-(2,3′-difluoro-5-methoxy-4′-methyl-4-biphenylyl)-N-3-isoxazolyl-2-oxo-1,2-dihydro-6-quinolinesulfonamide], with 8.62 µM; and `COc1cc(-c2cc(F)cc(F)c2F)c(F)cc1-n1c(=O)ccc2cc(S(=O)(=O)Nc3ccon3)ccc21` (atropisomer, axis not shown; (M)) [Example 515, (M)-N-3-isoxazolyl-2-oxo-1-(2,2′,3′,5′-tetrafluoro-5-methoxy-4-biphenylyl)-1,2-dihydro-6-quinolinesulfonamide], with 5.16 µM; and `COc1cc(-c2cc(F)c(F)cc2F)c(F)cc1-n1c(=O)ccc2cc(S(=O)(=O)Nc3ccon3)ccc21` (atropisomer, axis not shown; (M)) [Example 517, (M)-N-3-isoxazolyl-2-oxo-1-(2,2′,4′,5′-tetrafluoro-5-methoxy-4-biphenylyl)-1,2-dihydro-6-quinolinesulfonamide], with 0.021 µM. `COc1cc(-c2cc(Cl)cc(C#N)c2)c(F)cc1-n1c(=O)ccc2cc(S(=O)(=O)Nc3ccon3)ccc21` (atropisomer, axis not shown; (M)) [Example 519, (M)-1-(3′-chloro-5′-cyano-2-fluoro-5-methoxy-4-biphenylyl)-N-3-isoxazolyl-2-oxo-1,2-dihydro-6-quinolinesulfonamide] displayed an IC50 of 0.016 µM. On the same count and under the same terms, with `COc1cc(-c2ccc(C#N)c(Cl)c2)c(F)cc1-n1c(=O)ccc2cc(S(=O)(=O)Nc3ccon3)ccc21` (atropisomer, axis not shown; (M)) [Example 521, (M)-1-(3′-chloro-4′-cyano-2-fluoro-5-methoxy-4-biphenylyl)-N-3-isoxazolyl-2-oxo-1,2-dihydro-6-quinolinesulfonamide] the figure was more than 10 µM; with `COc1cc(-c2cccc(C)c2)c(F)cc1-n1c(=O)ccc2cc(S(=O)(=O)Nc3ccon3)ccc21` (atropisomer, axis not shown; (M)) [Example 523, (M)-1-(2-fluoro-5-methoxy-3′-methyl-4-biphenylyl)-N-3-isoxazolyl-2-oxo-1,2-dihydro-6-quinolinesulfonamide], 4.74 µM; with `COc1cc(-c2ccc(C)c(C#N)c2)c(F)cc1-n1c(=O)ccc2cc(S(=O)(=O)Nc3ccon3)ccc21` (atropisomer, axis not shown; (M)) [Example 525, (M)-1-(3′-cyano-2-fluoro-5-methoxy-4′-methyl-4-biphenylyl)-N-3-isoxazolyl-2-oxo-1,2-dihydro-6-quinolinesulfonamide], 4.84 µM. The same measure, in the same setting: with `COc1cc(-c2ccc(C)c(Cl)c2)c(F)cc1-n1c(=O)ccc2cc(S(=O)(=O)Nc3ccon3)ccc21` (atropisomer, axis not shown; (M)) [Example 529, (M)-1-(3′-chloro-2-fluoro-5-methoxy-4′-methyl-4-biphenylyl)-N-3-isoxazolyl-2-oxo-1,2-dihydro-6-quinolinesulfonamide] the figure was 3.15 µM.
